Source: patent publication US10941139B2, “Cryptophycin compounds and conjugates, their preparation and their therapeutic use” (priority 2015, dated 2021)
Values joined by “and” are separate entries in the source; they are usually repeats but may differ in a detail not shown here. Equal entries are not always repeated. Where two headings read alike, the source gives them in different places.

What was measured:
[1] = test system: MDA-MB-231 cells; experiment: Inhibition of proliferation of the MDA-MB-231 cell line by the cryptophycin compounds of formula (I) (14C-thymidine incorporation); assay type: cell-based; conditions: 14C-thymidine incorporation at 96 h, tested as pure β epoxide or α/β epoxide mixture (structural comment), read-out: IC50 (pM) MDA-MD-231
Protocol: (§1) Evaluation of the Inhibition of Proliferation of the HCT116 and MDA-MB-231 Cell Lines by the Cryptophycin Compounds of Formula (I)
(§2) HCT116 and MDA-MB-231 cells in their exponential growth phase were trypsinized and resuspended in their respective culture medium (DMEM/F12 Gibco #21331, 10% FCS Gibco #10500-056, […] Gibco #25030 for the MDA-MB-231 cells; DMEM Gibco #11960, 10% FCS Gibco #10500-056, 2 mM glutamine Gibco #25030 for the HCT116 cells). The cell suspension was seeded in Cytostar 96-well culture plates (GE Healthcare Europe, # RPNQ0163) in the whole culture medium containing serum at a density of 5000 cells/well. After incubation for 4 h, successive dilutions of the cryptophycin compounds were added to the wells at concentrations decreasing from 10^−7 to 10^−12 M (in triplicate for each concentration). The cells were cultured at 37° C. in an atmosphere containing 5% CO2 in the presence of the cryptophycin compounds for 3 d. On the 4th day, 10 μl of a ^14C-thymidine solution (0.1 μCi/well, Perkin Elmer # NEC56825000) were added to each well. The incorporation of ^14C-thymidine was measured 96 h after the start of the experiment with a microbeta radioactivity counter (Perkin Elmer). The data were expressed in the form of a percentage of survival by determining the ratio between the reduced count obtained with the cells treated with the cryptophycin compound and the count obtained with the cells of the control wells (treated with the culture medium alone).
(§3) The inhibitory activity is given by the concentration which inhibits 50% of the activity.

[2] = 16-membered ring
[3] = test system: HCT116 cells; experiment: Inhibition of proliferation of the HCT116 cell line by the cryptophycin compounds of formula (I) (14C-thymidine incorporation); assay type: cell-based; conditions: tested as pure β epoxide or α/β epoxide mixture (structural comment)
Protocol: as §1, §2, §3

[4] = test system: lung cancer; conditions: two phase II lung cancer trials; cited from earlier work
[5] = Homo sapiens, HCT-116, 14C-thymidine incorporation at 96 h

COc1ccc(C[C@H]2NC(=O)/C=C/C[C@@H]([C@H](C)C3OC3c3ccc(CO)cc3)OC(=O)[C@H](C)NC(=O)C(C)(C)CNC2=O)cc1Cl (stereo partly drawn) [Ex. 15, (3S,10R,16S,E)-10-(3-chloro-4-methoxybenzyl)-16-((S)-1-(3-(4-(hydroxy-methyl)phenyl)oxiran-2-yl)ethyl)-3,6,6-trimethyl-1-oxa-4,8,11-triazacyclohexadec-13-ene-2,5,9,12-tetraone]
IC50 ([1]; Homo sapiens, MDA-MB-231): 511 pM

COc1ccc(C[C@H]2NC(=O)/C=C/C[C@@H]([C@H](C)[C@H]3O[C@@H]3c3ccc(CO)cc3)OC(=O)[C@H](CC(C)(C)C)NC(=O)C(C)(C)C(C)NC2=O)cc1Cl (stereo partly drawn) [Ex. 11, (3S,10R,16S,E)-10-(3-chloro-4-methoxybenzyl)-16-((S)-1-((2R,3R)-3-(4-(hydroxymethyl)phenyl)oxiran-2-yl)ethyl)-6,6,7-trimethyl-3-neopentyl-1-oxa-4,8,11-triazacyclohexadec-13-ene-2,5,9,12-tetraone]
IC50 ([1]; Homo sapiens, MDA-MB-231): 102 pM

(3S,10R,16S, E)-16-((R,E)-4-(4-(azidomethyl)phenyl)but-3-en-2-yl)-10-(3-chloro-4-methoxybenzyl)-3-isobutyl-6,6,7-trimethyl-1-oxa-4,8,11-triazacyclohexadec-13-ene-2,5,9,12-tetraone
ring closure, isolated yield ([2]; amide bond): 53%

COc1ccc(C[C@H]2NC(=O)/C=C/C[C@@H]([C@H](C)[C@H]3O[C@@H]3c3ccc(CN)cc3)OC(=O)[C@H](CC(C)C)NC(=O)C(C)(C)CNC2=O)cc1Cl [Ex. 1, (3S,10R,16S,E)-16-((S)-1-((2R,3R)-3-(4-(aminomethyl)phenyl)oxiran-2-yl)ethyl)-10-(3-chloro-4-methoxybenzyl)-3-isobutyl-6,6-dimethyl-1-oxa-4,8,11-triazacyclohexadec-13-ene-2,5,9,12-tetraone]
IC50 [3, 5]: 163 pM | IC50 ([1]; Homo sapiens, MDA-MB-231): 250 pM

COc1ccc(C[C@H]2NC(=O)/C=C/C[C@@H]([C@H](C)C3OC3c3ccc(CN)cc3)OC(=O)[C@H](CC(C)C)NC(=O)C(C)(C)C(C)NC2=O)cc1Cl (stereo partly drawn) [Ex. 8, (3S,10R,16S,E)-16-((S)-1-(3-(4-(aminomethyl)phenyl)oxiran-2-yl)ethyl)-10-(3-chloro-4-methoxybenzyl)-3-isobutyl-6,6,7-trimethyl-1-oxa-4,8,11-triazacyclohexadec-13-ene-2,5,9,12-tetraone]
IC50 [3, 5]: 518 pM | IC50 ([1]; Homo sapiens, MDA-MB-231): 564 pM

COc1ccc(C[C@H]2NC(=O)/C=C/C[C@@H]([C@H](C)C3OC3c3ccc(CO)cc3)OC(=O)[C@H](C(C)(C)C)NC(=O)C(C)(C)CNC2=O)cc1Cl (stereo partly drawn) [Ex. 17, (3S,10R,16S,E)-10-(3-chloro-4-methoxybenzyl)-16-((S)-1-(3-(4-(hydroxy-methyl)phenyl)oxiran-2-yl)ethyl)-3-tert-butyl-6,6-dimethyl-1-oxa-4,8,11-triazacyclohexadec-13-ene-2,5,9,12-tetraone]
IC50 ([1]; Homo sapiens, MDA-MB-231): 856 pM

(3S,10R,16S, E)-10-(3-chloro-4-methoxybenzyl)-16-((R,E)-4-(4-(hydroxymethyl)-phenyl)but-3-en-2-yl)-6,6-dimethyl-3-neopentyl-1-oxa-4,8,11-triazacyclohexadec-13-ene-2,5,9,12-tetraone
ring closure, isolated yield ([2]; amide bond): 70%

COc1ccc(C[C@H]2NC(=O)/C=C/C[C@@H]([C@H](C)[C@H]3O[C@@H]3c3ccccc3)OC(=O)[C@H](CC(C)C)OC(=O)C(C)(C)CNC2=O)cc1Cl [C-52, cryptophycin C-52, reference compound]
IC50 ([3]; 14C-thymidine incorporation at 96 h): 76 pM | IC50 [1]: 90 pM | stable disease [4]: 30-40%

(3S,10R,16S,E)-10-(3-chloro-4-methoxybenzyl)-6-(hydroxymethyl)-16-((R)-1-((4-methoxybenzyl)oxy)propan-2-yl)-6-methyl-3-neopentyl-1-oxa-4,8,11-triazacyclohexadec-13-ene-2,5,9,12-tetraone
ring closure, isolated yield ([2]; rcm bond): 56% and 37%

(3S,7S,10R,16S, E)-10-(3-chloro-4-methoxybenzyl)-16-((R)-1-((4-methoxy-benzyl)oxy)propan-2-yl)-6,6,7-trimethyl-3-neopentyl-1-oxa-4,8,11-triazacyclohexadec-13-ene-2,5,9,12-tetraone
ring closure, isolated yield ([2]; rcm bond): 61%

COc1ccc(C[C@H]2NC(=O)/C=C/C[C@@H]([C@H](C)[C@H]3O[C@@H]3c3ccc(CN)cc3)OC(=O)[C@H](CC(C)C)NC(=O)C(C)(C)C(C)NC2=O)cc1Cl (stereo partly drawn) [Ex. 18, (3S,10R,16S,E)-16-((S)-1-((2R,3R)-3-(4-(aminomethyl)phenyl)oxiran-2-yl)ethyl)-10-(3-chloro-4-methoxybenzyl)-3-isobutyl-6,6,7-trimethyl-1-oxa-4,8,11-triazacyclohexadec-13-ene-2,5,9,12-tetraone]
IC50 [3, 5]: 179 pM | IC50 ([1]; Homo sapiens, MDA-MB-231): 228 pM

COc1ccc(C[C@H]2NC(=O)/C=C/C[C@@H]([C@H](C)[C@H]3O[C@@H]3c3ccc(CO)cc3)OC(=O)[C@H](CC(C)(C)C)NC(=O)C(C)(C)CNC2=O)cc1Cl [Ex. 4, (3S,10R,16S,E)-10-(3-chloro-4-methoxybenzyl)-16-((S)-1-((2R,3R)-3-(4-(hydroxy-methyl)phenyl)oxiran-2-yl)ethyl)-6,6-dimethyl-3-neopentyl-1-oxa-4,8,11-triazacyclohexadec-13-ene-2,5,9,12-tetraone]
IC50 [3, 5]: 51 pM | IC50 ([1]; Homo sapiens, MDA-MB-231): 82 pM

(3S,10R,16S, E)-10-(3-chloro-4-methoxybenzyl)-16-((R,E)-4-(4-(hydroxymethyl)-phenyl)but-3-en-2-yl)-6,6,7-trimethyl-3-neopentyl-1-oxa-4,8,11-triazacyclohexadec-13-ene-2,5,9,12-tetraone
ring closure, isolated yield ([2]; amide bond): 54%

(3S,10R,16S,E)-16-((R,E)-4-(4-(azidomethyl)phenyl)but-3-en-2-yl)-10-(3-chloro-4-methoxybenzyl)-3-isobutyl-6,6-dimethyl-1-oxa-4,8,11-triazacyclohexadec-13-ene-2,5,9,12-tetraone
ring closure, isolated yield ([2]; amide bond): 68%

(3S,10R,16S,E)-16-((S)-1-((2R,3R)-3-(4-(aminomethyl)phenyl)oxiran-2-yl)ethyl)-10-(3-chloro-4-methoxybenzyl)-6-methyl-3-neopentyl-6-(((triethylsilyl)oxy)methyl)-1-oxa-4, 8,11-triazacyclohexadec-13-ene-2,5,9,12-tetraone [Ex. 32]
IC50 [1]: 1780 pM

COc1ccc(C[C@H]2NC(=O)/C=C/C[C@@H]([C@H](C)C3OC3c3ccc(CO)cc3)OC(=O)[C@H](C(C)C)NC(=O)C(C)(C)CNC2=O)cc1Cl (stereo partly drawn) [Ex. 16, (3S,10R,16S,E)-10-(3-chloro-4-methoxybenzyl)-16-((S)-1-(3-(4-(hydroxy-methyl)phenyl)oxiran-2-yl)ethyl)-6,6-dimethyl-3-isopropyl-1-oxa-4,8,11-triazacyclohexadec-13-ene-2,5,9,12-tetraone]
IC50 ([1]; Homo sapiens, MDA-MB-231): 2820 pM
